For 32 compounds, IC50 results are on record in patent US9447106B2, “Substituted pyrazolo[1,5-a]pyrimidines as bruton's tyrosine kinase modulators” (Beigene, Ltd., priority 2013, dated 2016).

The experiment has as its target phosphorylated Btk at Tyr223 in Ramos cells (Homo sapiens (Human), UniProt Q06187). Kind of experiment: Btk pY223 cellular assay (HTRF) in Ramos cells. To be noted: 1 hour compound incubation, pervanadate or Na3VO4 stimulation. The experiment is classed as cell-based.

Each structure is given as a SMILES string. Counter-ions that a name gives are not always drawn.

Sequence of phosphorylated Btk at Tyr223 in Ramos cells (Q06187 whole entry): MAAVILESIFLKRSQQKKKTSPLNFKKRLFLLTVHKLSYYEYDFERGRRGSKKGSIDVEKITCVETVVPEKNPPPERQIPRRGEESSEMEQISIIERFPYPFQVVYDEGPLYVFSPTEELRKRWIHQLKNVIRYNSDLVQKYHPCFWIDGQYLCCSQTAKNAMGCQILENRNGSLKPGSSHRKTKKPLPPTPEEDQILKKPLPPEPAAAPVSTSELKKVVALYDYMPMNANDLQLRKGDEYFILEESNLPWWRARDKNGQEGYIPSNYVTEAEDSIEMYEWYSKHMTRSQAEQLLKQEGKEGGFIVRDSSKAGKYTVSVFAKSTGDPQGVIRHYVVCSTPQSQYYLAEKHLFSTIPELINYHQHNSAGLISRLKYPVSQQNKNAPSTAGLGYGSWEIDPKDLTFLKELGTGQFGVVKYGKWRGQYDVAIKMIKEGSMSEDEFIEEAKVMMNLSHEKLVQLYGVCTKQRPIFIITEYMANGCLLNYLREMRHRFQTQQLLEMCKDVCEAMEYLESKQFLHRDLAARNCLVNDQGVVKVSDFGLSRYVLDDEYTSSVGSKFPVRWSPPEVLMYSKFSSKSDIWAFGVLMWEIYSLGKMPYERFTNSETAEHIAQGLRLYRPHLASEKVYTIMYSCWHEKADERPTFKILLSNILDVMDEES
Method: Btk pY223 cellular assay is a HTRF based assay intended to determine the endogenous levels of phosphorylated Btk at Tyr223.
Briefly, Ramos cells were serum starved in 0.5% FBS-containing RPMI1640 for 2 hours. Following starvation, the cells were incubated with compounds to be detected at various concentrations in a CO2 incubator for 1 hour. After incubation, cells were stimulated with 1 mM pervanadate (PV) or Na3VO4 (OV) for 20 min. Then, the cells were spinned down and lysed with 1× lysis buffer at RT for 10 min (4× lysis buffer supplied in the kit). During the incubation, 1× antibody mix was prepared by diluting anti-Btk-d2 and anti-pBtk-K in detection buffer (supplied in the kit). […] After that, 18 ul of cell lysate was transferred to the assay plate pre-loaded with antibody solution. After mixing gently and spinning briefly, the plate was sealed up and kept in dark at RT for 18 hours. […] IC50 values were calculated with GraphPad Prism software using the sigmoidal dose-response function.

Take `C=CC(=O)Nc1ccccc1C1CCNc2c(C(N)=O)c(-c3ccc(Oc4ccc(F)cc4)cc3)nn21` (centres unmarked) [Compound 12, 7-(2-Acrylamidophenyl)-2-(4-(4-fluorophenoxyl)phenyl)-4,5,6,7-tetrahydropyrazolo[1,5-a]pyrimidine-3-carboxamide]: it took 23.6 nM to reach half-maximal inhibition (IC50).
Take `C=CC(=O)N(C)CC1CCNc2c(C(N)=O)c(-c3ccc(Oc4ccccc4)cc3)nn21` (centres unmarked) [Compound 35]: half-maximal inhibition (IC50) required 7.9 nM.
In the case of `C=CC(=O)N1CCC2(CCNc3c(C(N)=O)c(-c4ccc(Oc5ccccc5)cc4)nn32)CC1` [Compound 43, 1-Acryloyl-2′-(4-phenoxyphenyl)-5′,6′-dihydro-4′H-spiro[piperidine-4,7′-pyrazolo[1,5-a]pyrimidine]-3′-carboxamide], the IC50 (commonly the concentration that gives 50% inhibition) was determined as 75.8 nM.
The result for `C=CC(=O)N1CC2(CNc3c(C(N)=O)c(-c4ccc(Oc5ccccc5)cc4)nn32)C1` [Compound 46, 1-Acryloyl-6′-(4-phenoxyphenyl)-1′,2′-dihydrospiro[azetidine-3,3′-imidazo[1,2-b]pyrazole]-7′-carboxamide] reads 22.6 nM.
Regarding `CN(C)CCC(=O)N1CCc2[nH]c3c(C(N)=O)c(-c4ccc(Oc5ccccc5)cc4)nn3c2C1` [Compound 57, 7-(3-(Dimethylamino)propanoyl)-2-(4-phenoxyphenyl)-5,6,7,8-tetrahydro-4H-pyrazolo[5′,1′:2,3]imidazo[4,5-c]pyridine-3-carboxamide trifluoroacetate], the 50% inhibitory concentration (IC50) was 233 nM. This IC50 is about 10-fold higher than that of the compound before.
Under `CC=CC(=O)N1CCc2[nH]c3c(C(N)=O)c(-c4ccc(Oc5ccccc5)cc4)nn3c2C1` [Compound 58, 7-(But-2-enoyl)-2-(4-phenoxyphenyl)-5,6,7,8-tetrahydro-4H-pyrazolo[5′,1′:2,3]imidazo[4,5-c]pyridine-3-carboxamide] stands 4.6 nM.
`CN(C)C/C=C/C(=O)N1CCc2c([nH]c3c(C(N)=O)c(-c4ccc(Oc5ccccc5)cc4)nn23)C1` [Compound 64, (E)-6-(4-(Dimethylamino)but-2-enoyl)-2-(4-phenoxyphenyl)-5,6,7,8-tetrahydro-4H-pyrazolo[1′,5′:1,2]imidazo[4,5-c]pyridine-3-carboxamide trifluoroacetate] gave a 50% inhibitory concentration (IC50) of 4.8 nM. This IC50 and that of the compound before are within 1.5-fold of each other.
The result for `C=CC(=O)Nc1ccc2c(c1)-n1nc(-c3ccc(Oc4ccccc4)cc3)c(C(N)=O)c1NC2` [Compound 69, 8-Acrylamido-2-(4-phenoxyphenyl)-4,5-dihydropyrazolo[1,5-a]quinazoline-3-carboxamide] reads 34.4 nM.
Compound `C=CC(=O)Nc1ccc2c(c1)CC(=O)Nc1c(C(N)=O)c(-c3ccc(Oc4ccccc4)cc3)nn1-2` [Compound 75, 8-Acrylamido-5-oxo-2-(4-phenoxyphenyl)-5,6-dihydro-4H-benzo[f]pyrazolo[1,5-a][1,3]diazepine-3-carboxamide] gave an IC50 of 223 nM. This IC50 lies about 6.5-fold higher than the previous one.
For `C=CC(=O)Nc1ccc2c(c1)c(=O)[nH]c1c(C(N)=O)c(-c3ccc(Oc4ccccc4)cc3)nn12` [Compound 78, 7-Acrylamido-5-oxo-2-(4-phenoxyphenyl)-4,5-dihydropyrazolo[1,5-a]quinazoline-3-carboxamide], the IC50 was found to be 140 nM.
Regarding `C=CC(=O)NC1CNc2c(C(N)=O)c(-c3ccc(Oc4ccccc4)cc3)nn2C1` (centres unmarked) [Compound 85, 6-Acrylamido-2-(4-phenoxyphenyl)-4,5,6,7-tetrahydropyrazolo[1,5-a]pyrimidine-3-carboxamide], half-maximal inhibition (IC50) required 73.2 nM.
Take `C=CC(=O)NCC1CNc2c(C(N)=O)c(-c3ccc(Oc4ccccc4)cc3)nn2C1` (centres unmarked) [Compound 86, 6-(Acrylamidomethyl)-2-(4-phenoxyphenyl)-4,5,6,7-tetrahydro pyrazolo[1,5-a]pyrimidine-3-carboxamide]: the IC50 was 4.4 nM.
Consider `CN(C)C/C=C/C(=O)Nc1ccccc1C1CCNc2c(C(N)=O)c(-c3ccc(Oc4ccccc4)cc3)nn21` (centres unmarked) [Compound 92, (E)-7-(2-(4-(dimethylamino)but-2-enamido)-phenyl)-2-(4-phenoxyphenyl)-4,5,6,7-tetrahydropyrazolo-[1,5-a]pyrimidine-3-carboxamide], for which the IC50 is 7 nM.
As for `C=CC(=O)N1CCCC1C1CCNc2c(C(N)=O)c(-c3ccc(Oc4ccccc4)cc3)nn21` (centres unmarked) [Compound 103, 7-(1-acryloylpyrrolidin-2-yl)-2-(4-phenoxyphenyl)-4,5,6,7-tetrahydropyrazolo-[1,5-a]pyrimidine-3-carboxamide], the 50% inhibitory concentration (IC50) came to 14 nM.
As for `C=CC(=O)N1CC(C2CCNc3c(C(N)=O)c(-c4ccc(OCc5ccccc5)cc4)nn32)C1` (centres unmarked) [Compound 104, 7-(1-acryloylazetidin-3-yl)-2-(4-(benzyloxy)phenyl)-4,5,6,7-tetrahydropyrazolo-[1,5-a]pyrimidine-3-carboxamide], 20.6 nM corresponded to half-maximal inhibition (IC50). The IC50 values of the last two compounds are within 1.5-fold of each other.
On to `C=CC(=O)N1CC(C2CCNc3c(C(N)=O)c(-c4ccc(Oc5ccc(Cl)cc5)cc4)nn32)C1` (centres unmarked) [Compound 106, 7-(1-acryloylazetidin-3-yl)-2-(4-(4-chlorophenoxy)-phenyl)-4,5,6,7-tetrahydropyrazolo[1,5-a]pyrimidine-3-carboxamide], for which the IC50 is 30.3 nM.
The result for `C=CC(=O)N1CC(C2CCNc3c(C(N)=O)c(-c4ccc(Oc5cccc(Cl)c5)cc4)nn32)C1` (centres unmarked) [Compound 107, 7-(1-acryloylazetidin-3-yl)-2-(4-(3-chlorophenoxy)phenyl)-4,5,6,7-tetrahydropyrazolo[1,5-a]pyrimidine-3-carboxamide] reads 11.2 nM; that for `CN(C)C/C=C/C(=O)N1CCc2[nH]c3c(C(N)=O)c(-c4ccc(Oc5ccccc5)cc4)nn3c2CC1` [Compound 122, (E)-7-(4-(dimethylamino)but-2-enoyl)-2-(4-phenoxyphenyl)-4,5,6,7,8,9-hexahydropyrazolo-[1′,5′:1,2]-imidazo[4,5-d]azepine-3-carboxamide], 12.6 nM; that for `CN(C)C/C=C/C(=O)N1CCCc2[nH]c3c(C(N)=O)c(-c4ccc(Oc5ccccc5)cc4)nn3c2C1` [Compound 124, (E)-8-(4-(dimethylamino)but-2-enoyl)-2-(4-phenoxyphenyl)-4,5,6,7,8,9-hexahydropyrazolo-[5′,1′:2,3]-imidazo[4,5-c]azepine-3-carboxamide], 4.6 nM.
In the case of `C=CC(=O)N1CC(C2CCNc3c(C(N)=O)c(-c4ccc(Oc5ccc(Cl)c(Cl)c5)cc4)nn32)C1` (centres unmarked) [Compound 132, 7-(1-acryloylazetidin-3-yl)-2-(4-(3,4-dichlorophenoxy)phenyl)-4,5,6,7-tetrahydropyrazolo[1,5-a]pyrimidine-3-carboxamide], the IC50 turned out to be 6.2 nM. This IC50 and that of the compound before are within 1.5-fold of each other.
`C=CC(=O)N1CC(C2CCNc3c(C(N)=O)c(-c4ccc(Oc5ccccc5C#N)cc4)nn32)C1` (centres unmarked) [Compound 135, 7-(1-acryloylazetidin-3-yl)-2-(4-(2-cyanophenoxy)phenyl)-4,5,6,7-tetrahydropyrazolo[1,5-a]pyrimidine-3-carboxamide] displayed an IC50 of 2.4 nM.
With `C=CC(=O)Nc1ccccc1C1CCNc2c(C(N)=O)c(-c3ccc(F)c(F)c3)nn21` (centres unmarked) [Compound 137, 7-(2-acrylamidophenyl)-2-(3,4-difluorophenyl)-4,5,6,7-tetrahydropyrazolo[1,5-a]pyrimidine-3-carboxamide], it took 22.7 nM to reach half-maximal inhibition (IC50).
The result for `C=CC(=O)N1CCC(C2(C)CCNc3c(C(N)=O)c(-c4ccc(Oc5ccccc5)cc4)nn32)CC1` (centres unmarked) [Compound 138, 7-(1-acryloylpiperidin-4-yl)-7-methyl-2-(4-phenoxyphenyl)-4,5,6,7-tetrahydropyrazolo[1,5-a]pyrimidine-3-carboxamide] reads 7.6 nM; that for `C=CC(=O)N1CC(C2CCNc3c(C(N)=O)c(-c4ccc(Oc5ccccc5)c(Cl)c4)nn32)C1` (centres unmarked) [Compound 139, 7-(1-acryloylazetidin-3-yl)-2-(3-chloro-4-phenoxyphenyl)-4,5,6,7-tetrahydropyrazolo[1,5-a]pyrimidine-3-carboxamide], 3.1 nM; that for `C=CC(=O)NCC1(C)CCNc2c(C(N)=O)c(-c3ccc(Oc4ccccc4)cc3)nn21` (centres unmarked) [Compound 143, 7-(acrylamidomethyl)-7-methyl-2-(4-phenoxyphenyl)-4,5,6,7-tetrahydropyrazolo[1,5-a]pyrimidine-3-carboxamide], 4.1 nM.
In turn, `C=CC(=O)Nc1ccccc1C1CCNc2c(C(N)=O)c(-c3ccc(OCc4ccccn4)c(Cl)c3)nn21` (centres unmarked) [Compound 146, 7-(2-Acrylamido-phenyl)-2-(3-chloro-4-(pyridin-2-ylmethoxy)phenyl)-4,5,6,7-tetrahydropyrazolo[1,5-a]pyrimidine-3-carboxamide] returned an IC50 of 4 nM. The IC50 values of the last two compounds are within 1.5-fold of each other.
For the compound `C=CC(=O)Nc1ccccc1C1CCNc2c(C(N)=O)c(-c3ccc(F)c(Br)c3)nn21` (centres unmarked) [Compound 152, 7-(2-Acrylamidophenyl)-2-(3-bromo-4-fluorophenyl)-4,5,6,7-tetrahydropyrazolo[1,5-a]pyrimidine-3-carboxamide], half-maximal inhibition (IC50) required 1.8 nM.
Compound `NC(=O)c1c(-c2ccc(F)c(Cl)c2)nn2c1NCCC2c1ccccc1NC(=O)/C=C/CN1CCCCC1` (centres unmarked) [Compound 153, (E)-2-(3-Chloro-4-fluorophenyl)-7-(2-(4-(piperidin-1-yl)but-2-enamido)phenyl)-4,5,6,7-tetrahydropyrazolo-[1,5-a]pyrimidine-3-carboxamide] came in with an IC50 of 165 nM.
Consider `C=CC(=O)Nc1ccccc1C1CCNc2c(C(N)=O)c(-c3ccc(Cl)c(F)c3)nn21` (centres unmarked) [Compound 154, 7-(2-Acrylamidophenyl)-2-(4-chloro-3-fluorophenyl)-4,5,6,7-tetrahydropyrazolo[1,5-a]pyrimidine-3-carboxamide], for which the half-maximal inhibitory concentration (IC50) is 1.5 nM.
Compound `C=CC(=O)Nc1ccccc1C1CCNc2c(C(N)=O)c(-c3ccc(Cl)c(Cl)c3)nn21` (centres unmarked) [Compound 156, 7-(2-Acrylamidophenyl)-2-(3,4-dichlorophenyl)-4,5,6,7-tetrahydropyrazolo-[1,5-a]pyrimidine-3-carboxamide] returned a half-inhibitory concentration (IC50) of 6.8 nM.
The result for `C=CC(=O)Nc1ccccc1C1CCNc2c(C(N)=O)c(-c3ccc(F)c(C)c3)nn21` (centres unmarked) [Compound 157, 7-(2-Acrylamidophenyl)-2-(4-fluoro-3-methylphenyl)-4,5,6,7-tetrahydropyrazolo[1,5-a]pyrimidine-3-carboxamide] reads 20 nM.
Take `C=CC(=O)Nc1ccccc1C1CCNc2c(C(N)=O)c(-c3ccc(Cl)c(OC)c3)nn21` (centres unmarked) [Compound 160, 7-(2-Acrylamidophenyl)-2-(4-chloro-3-methoxyphenyl)-4,5,6,7-tetrahydropyrazolo[1,5-a]pyrimidine-3-carboxamide]: the IC50 came out at 1.3 nM. This IC50 lies about 15-fold lower than the previous one.
